Legend:
Type in all cases: biochemical
human Cat K = human Cat K (Homo sapiens (Human), UniProt P43235); experiment: Cathepsin enzyme inhibition assay (fluorogenic peptide substrate), Cat K; settings: enzyme 1 nM, substrate Z-Leu-Arg-AMC 20 μM, pH 6.5
Experimental: (§1) Enzyme activity is measured by observing the increase in fluorescence intensity caused by cleavage of a peptide substrate containing a fluorophore whose emission is quenched in the intact peptide.
(§2) Assay buffer: 100 mM potassium phosphate pH 6.5, EDTA-Na 5 mM, Triton X-100 0.001%, DTT 5 mM.
(§3) Enzymes (all at 1 nM): human and mouse Cathepsin S, Cat K, Cat B, Cat L. Substrate (20 μM): Z-Val-Val-Arg-AMC, except for Cat K which uses Z-Leu-Arg-AMC (both from Bachem).
(§4) Excitation 360 nm, Emission 465 nm.
(§5) Enzyme is added to the substance dilutions in 96-well microtitre plates and the reaction is started with substrate. […] IC50 are calculated by standard methods. Inhibition of human Cat S, mouse Cat S, human Cat K, mouse Cat K, human Cat B, mouse Cat B, human Cat L and mouse Cat L have been measured separately.

human Cat L = human Cat L (Homo sapiens (Human), UniProt P07711); experiment: Cathepsin enzyme inhibition assay (fluorogenic peptide substrate), Cat L; settings: enzyme 1 nM, substrate Z-Val-Val-Arg-AMC 20 μM, pH 6.5
Chain of human Cat L (P07711 114-333): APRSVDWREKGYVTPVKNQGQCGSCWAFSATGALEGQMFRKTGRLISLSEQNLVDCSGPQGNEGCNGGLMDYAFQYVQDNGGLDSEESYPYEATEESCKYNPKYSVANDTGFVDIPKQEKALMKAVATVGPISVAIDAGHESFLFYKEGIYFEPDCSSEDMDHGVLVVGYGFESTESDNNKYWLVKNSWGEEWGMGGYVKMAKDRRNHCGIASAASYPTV
Experimental: as §1, §2, §3, §4, §5

human Cat B = human Cat B (Homo sapiens (Human), UniProt P07858); experiment: Cathepsin enzyme inhibition assay (fluorogenic peptide substrate), Cat B; settings: enzyme 1 nM, substrate Z-Val-Val-Arg-AMC 20 μM, pH 6.5
Experimental: as §1, §2, §3, §4, §5

human Cathepsin S = human Cathepsin S (Homo sapiens (Human), UniProt P25774); experiment: Cathepsin enzyme inhibition assay (fluorogenic peptide substrate), Cat S; settings: enzyme 1 nM, substrate Z-Val-Val-Arg-AMC 20 μM, pH 6.5
Chain of human Cathepsin S (P25774 115-331): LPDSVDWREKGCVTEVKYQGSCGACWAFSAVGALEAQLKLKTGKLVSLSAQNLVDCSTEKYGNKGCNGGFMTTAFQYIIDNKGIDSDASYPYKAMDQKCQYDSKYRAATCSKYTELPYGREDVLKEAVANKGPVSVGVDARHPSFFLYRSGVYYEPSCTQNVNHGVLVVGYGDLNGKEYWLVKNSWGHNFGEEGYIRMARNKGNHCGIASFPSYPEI
Experimental: as §1, §2, §3, §4, §5

Chain of human Cat K (P43235 115-329): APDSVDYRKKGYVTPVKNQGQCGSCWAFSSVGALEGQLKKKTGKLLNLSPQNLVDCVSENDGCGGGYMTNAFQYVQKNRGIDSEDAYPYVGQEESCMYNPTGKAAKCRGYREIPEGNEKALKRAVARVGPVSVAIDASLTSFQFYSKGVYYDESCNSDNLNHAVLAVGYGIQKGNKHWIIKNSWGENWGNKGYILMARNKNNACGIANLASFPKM

CC[C@H](NC(=O)[C@@H]1C[C@@H](S(=O)(=O)c2ccccc2Cl)CN1C(=O)C1(c2ncc(Cl)cc2F)CC1)C(=O)C(=O)NC1CC1 [Example 25, (2S,4R)-1-(1-(5-chloro-3-fluoropyridin-2-yl)cyclopropanecarbonyl)-4-(2-chlorophenylsulfonyl)-N—((S)-1-(cyclopropylamino)-1,2-dioxopentan-3-yl)pyrrolidine-2-carboxamide]
IC50 (human Cat K): 97.7 nM | IC50 (human Cat L): 9.8 nM | IC50 (human Cat B): 251 nM | IC50 (human Cathepsin S): 0.403 nM

CCC[C@H](NC(=O)[C@@H]1C[C@@H](S(=O)(=O)c2ccccc2Cl)CN1C(=O)C1(c2ccc(Cl)cc2)CC1)C(=O)C(=O)NC(C)C [Example 41, (2S,4R)-1-(1-(4-chlorophenyl)cyclopropanecarbonyl)-4-(2-chlorophenylsulfonyl)-N—((S)-1-(isopropylamino)-1,2-dioxohexan-3-yl)pyrrolidine-2-carboxamide]
IC50 (human Cat K): 152 nM | IC50 (human Cat L): 11.7 nM | IC50 (human Cat B): 187 nM | IC50 (human Cathepsin S): 0.568 nM

CC[C@H](NC(=O)[C@@H]1C[C@@H](S(=O)(=O)c2ccccc2Cl)CN1C(=O)C1(c2ccc(Cl)cc2)CC1)C(=O)C(=O)NCCOC [Example 54, (2S,4R)-1-(1-(4-chlorophenyl)cyclopropanecarbonyl)-4-(2-chlorophenylsulfonyl)-N—((S)-1-(2-methoxyethylamino)-1,2-dioxopentan-3-yl)pyrrolidine-2-carboxamide]
IC50 (human Cat K): 82 nM | IC50 (human Cat L): 2.6 nM | IC50 (human Cat B): 85.4 nM | IC50 (human Cathepsin S): 0.63 nM

CC[C@H](NC(=O)[C@@H]1C[C@@H](S(=O)(=O)c2ccccc2Cl)CN1C(=O)C1(c2ccc(Cl)cc2F)CC1)C(=O)C(=O)NC1CC1 [Example 13, (2S,4R)-1-(1-(4-chloro-2-fluorophenyl)cyclopropanecarbonyl)-4-(2-chlorophenylsulfonyl)-N—((S)-1-(cyclopropylamino)-1,2-dioxopentan-3-yl)pyrrolidine-2-carboxamide]
IC50 (human Cat K): 67.9 nM | IC50 (human Cat L): 11.3 nM | IC50 (human Cat B): 142 nM | IC50 (human Cathepsin S): 0.704 nM

CCC[C@H](NC(=O)[C@@H]1C[C@@H](S(=O)(=O)c2ccc(N3CCOCC3)cc2Cl)CN1C(=O)C1(c2ccc(Cl)cc2)CC1)C(=O)C(=O)NC1CC1 [Example 57, (2S,4R)-4-(2-chloro-4-morpholinophenylsulfonyl)-1-(1-(4-chlorophenyl)cyclopropanecarbonyl)-N—((S)-1-(cyclopropylamino)-1,2-dioxohexan-3-yl)pyrrolidine-2-carboxamide]
IC50 (human Cat K): 75 nM | IC50 (human Cat L): 24.9 nM | IC50 (human Cat B): 93.2 nM | IC50 (human Cathepsin S): 3.33 nM

CC[C@H](NC(=O)[C@@H]1C[C@@H](S(=O)(=O)c2ccccc2Cl)CN1C(=O)C1(c2ccc(Cl)cc2)CC1)C(=O)C(=O)NCCc1ccccc1 [Example 49, (2S,4R)-1-(1-(4-chlorophenyl)cyclopropanecarbonyl)-4-(2-chlorophenylsulfonyl)-N—((S)-1,2-dioxo-1-(phenethylamino)pentan-3-yl)pyrrolidine-2-carboxamide]
IC50 (human Cat K): 34.4 nM | IC50 (human Cat L): 2 nM | IC50 (human Cat B): 30.2 nM | IC50 (human Cathepsin S): 0.901 nM

CCC[C@H](NC(=O)[C@@H]1C[C@@H](S(=O)(=O)c2ccccc2Cl)CN1C(=O)C1(c2ccc(Cl)cc2)CC1)C(=O)C(=O)N(C)C1CC1 [Example 47, (2S,4R)-1-(1-(4-chlorophenyl)cyclopropanecarbonyl)-4-(2-chlorophenylsulfonyl)-N—((S)-1-(cyclopropyl(methyl)amino)-1,2-dioxohexan-3-yl)pyrrolidine-2-carboxamide]
IC50 (human Cat K): 998 nM | IC50 (human Cat L): 283 nM | IC50 (human Cat B): 1540 nM | IC50 (human Cathepsin S): 22.3 nM

CC[C@H](NC(=O)[C@@H]1C[C@@H](S(=O)(=O)c2ccc(OCC(F)(F)F)cc2C(F)(F)F)CN1C(=O)C1(c2ccc(Cl)cc2)CC1)C(=O)C(=O)NC1CC1 [Example 11]
IC50 (human Cat K): 390 nM | IC50 (human Cat L): 63.2 nM | IC50 (human Cat B): 291 nM | IC50 (human Cathepsin S): 1.38 nM

CC(C)C[C@H](NC(=O)[C@@H]1C[C@@H](S(=O)(=O)c2ccccc2Cl)CN1C(=O)C1(c2ncc(Cl)cc2F)CC1)C(=O)C(=O)NC1CC1 [Example 59, (2S,4R)-1-(1-(5-chloro-3-fluoropyridin-2-yl)cyclopropanecarbonyl)-4-(2-chlorophenylsulfonyl)-N—((S)-1-(cyclopropylamino)-5-methyl-1,2-dioxohexan-3-yl)pyrrolidine-2-carboxamide]
IC50 (human Cat K): 141 nM | IC50 (human Cat L): 6.4 nM | IC50 (human Cat B): 518 nM | IC50 (human Cathepsin S): 2.61 nM

CCCCNC(=O)C(=O)[C@H](CCC)NC(=O)[C@@H]1C[C@@H](S(=O)(=O)c2ccccc2Cl)CN1C(=O)C1(c2ncc(Cl)cc2F)CC1 [Example 61, (2S,4R)—N—((S)-1-(butylamino)-1,2-dioxohexan-3-yl)-1-(1-(5-chloro-3-fluoropyridin-2-yl)cyclopropanecarbonyl)-4-(2-chlorophenylsulfonyl)pyrrolidine-2-carboxamide]
IC50 (human Cat K): 106 nM | IC50 (human Cat L): 6.2 nM | IC50 (human Cat B): 172 nM | IC50 (human Cathepsin S): 2.93 nM

CCC[C@H](NC(=O)[C@@H]1C[C@@H](S(=O)(=O)c2ccccc2Cl)CN1C(=O)C1(c2ccc(Cl)cc2)CC1)C(=O)C(=O)NCC [Example 44, (2S,4R)-1-(1-(4-chlorophenyl)cyclopropanecarbonyl)-4-(2-chlorophenylsulfonyl)-N—((S)-1-(ethylamino)-1,2-dioxohexan-3-yl)pyrrolidine-2-carboxamide]
IC50 (human Cat K): 91.8 nM | IC50 (human Cat L): 13.6 nM | IC50 (human Cat B): 108 nM | IC50 (human Cathepsin S): 0.779 nM

CC[C@H](NC(=O)[C@@H]1C[C@@H](S(=O)(=O)c2ccc(C)cc2C)CN1C(=O)OC(C)(C)C)C(=O)C(=O)NC1CC1 [Example 1, (2S,4R)-tert-butyl 2-((S)-1-(cyclopropylamino)-1,2-dioxopentan-3-ylcarbamoyl)-4-(2,4-dimethylphenylsulfonyl)pyrrolidine-1-carboxylate]
IC50 (human Cat K): 7900 nM | IC50 (human Cat L): 1910 nM | IC50 (human Cat B): 11100 nM | IC50 (human Cathepsin S): 0.829 nM

CC[C@H](NC(=O)[C@@H]1C[C@@H](S(=O)(=O)c2ccccc2Cl)CN1C(=O)C1(c2ccc(Br)cc2F)CC1)C(=O)C(=O)NC1CC1 [Example 14, (2S,4R)-1-(1-(4-bromo-2-fluorophenyl)cyclopropanecarbonyl)-4-(2-chlorophenylsulfonyl)-N—((S)-1-(cyclopropylamino)-1,2-dioxopentan-3-yl)pyrrolidine-2-carboxamide]
IC50 (human Cat K): 37.3 nM | IC50 (human Cat L): 10.4 nM | IC50 (human Cat B): 150 nM | IC50 (human Cathepsin S): 0.668 nM

CCC[C@H](NC(=O)[C@@H]1C[C@@H](S(=O)(=O)c2ccccc2Cl)CN1C(=O)C1(c2ccc(Cl)cc2)CC1)C(=O)C(=O)NCC(F)(F)F [Example 40, (2S,4R)-1-(1-(4-chlorophenyl)cyclopropanecarbonyl)-4-(2-chlorophenylsulfonyl)-N—((S)-1,2-dioxo-1-(2,2,2-trifluoroethylamino)hexan-3-yl)pyrrolidine-2-carboxamide]
IC50 (human Cat K): 406 nM | IC50 (human Cat L): 29.9 nM | IC50 (human Cat B): 366 nM | IC50 (human Cathepsin S): 1.06 nM

CC[C@H](NC(=O)[C@@H]1C[C@@H](S(=O)(=O)c2ccc(Br)cc2C(F)(F)F)CN1c1cc(C)nn1C1CCC1)C(=O)C(=O)NC1CC1 [Example 6, (2S,4R)-4-(4-bromo-2-(trifluoromethyl)phenylsulfonyl)-1-(1-cyclobutyl-3-methyl-1H-pyrazol-5-yl)-N—((S)-1-(cyclopropylamino)-1,2-dioxopentan-3-yl)pyrrolidine-2-carboxamide]
IC50 (human Cat K): 168 nM | IC50 (human Cat L): 202 nM | IC50 (human Cat B): 1300 nM | IC50 (human Cathepsin S): 0.976 nM

Reference: patent publication US8729061B2, “Pyrrolidine derivatives” (Hoffmann-La Roche Inc., priority 2011, dated 2014)
